For one experiment, the target named is T1, TLR7 (Homo sapiens, UniProt Q9NYK1).
T1 construct: human HEK-Blue cells co-expressing a TLR7 or TLR8 gene
T1 sequence (Q9NYK1 27-1049): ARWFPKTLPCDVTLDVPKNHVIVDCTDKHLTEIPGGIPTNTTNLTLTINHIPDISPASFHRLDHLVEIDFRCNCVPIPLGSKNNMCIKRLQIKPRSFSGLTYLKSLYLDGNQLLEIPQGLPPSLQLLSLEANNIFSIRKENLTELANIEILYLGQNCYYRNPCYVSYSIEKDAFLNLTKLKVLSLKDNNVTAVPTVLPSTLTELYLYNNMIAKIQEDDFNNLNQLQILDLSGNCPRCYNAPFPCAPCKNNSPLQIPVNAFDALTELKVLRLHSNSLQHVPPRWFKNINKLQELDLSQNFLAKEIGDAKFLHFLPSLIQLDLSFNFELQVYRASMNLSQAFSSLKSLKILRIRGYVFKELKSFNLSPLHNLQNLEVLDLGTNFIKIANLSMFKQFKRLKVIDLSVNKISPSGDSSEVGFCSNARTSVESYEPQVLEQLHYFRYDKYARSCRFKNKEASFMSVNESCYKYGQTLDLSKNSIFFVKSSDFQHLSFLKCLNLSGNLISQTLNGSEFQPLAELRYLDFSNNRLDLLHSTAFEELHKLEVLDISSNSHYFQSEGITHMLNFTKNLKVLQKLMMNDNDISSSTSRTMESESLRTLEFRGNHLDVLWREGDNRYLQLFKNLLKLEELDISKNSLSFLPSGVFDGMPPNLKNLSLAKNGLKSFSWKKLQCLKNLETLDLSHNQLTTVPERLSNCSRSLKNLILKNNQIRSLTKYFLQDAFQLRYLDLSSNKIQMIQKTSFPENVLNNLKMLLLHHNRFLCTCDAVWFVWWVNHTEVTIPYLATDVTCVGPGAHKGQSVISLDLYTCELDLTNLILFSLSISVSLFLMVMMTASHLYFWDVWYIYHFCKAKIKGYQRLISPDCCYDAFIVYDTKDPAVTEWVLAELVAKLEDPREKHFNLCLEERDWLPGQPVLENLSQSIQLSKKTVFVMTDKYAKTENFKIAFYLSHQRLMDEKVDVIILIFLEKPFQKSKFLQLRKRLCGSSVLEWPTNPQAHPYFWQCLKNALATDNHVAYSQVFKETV
The experiment is described as follows: In vitro human TLR7 binding reporter assay (HEK-Blue, NF-kB/AP1-inducible SEAP). The format is cell-based. The following applies: activity range, read-out: TLR7 Agonist EC50. The procedure, abridged: (§1)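 EC50s come from NF-kB/AP1-driven SEAP secretion in HEK-Blue cells expressing TLR7 or TLR8, measured with Quanti-Blue after an 18 h compound incubation. Maximal response is defined by a 50 μM reference standard.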
(In general: In a reporter assay the amount or activity of a reporter protein is the signal.)

A further experiment has as its target T2, TLR8 (Homo sapiens, UniProt Q9NR97).
T2 construct: human HEK-Blue cells co-expressing a TLR7 or TLR8 gene
T2 sequence (Q9NR97 27-1041): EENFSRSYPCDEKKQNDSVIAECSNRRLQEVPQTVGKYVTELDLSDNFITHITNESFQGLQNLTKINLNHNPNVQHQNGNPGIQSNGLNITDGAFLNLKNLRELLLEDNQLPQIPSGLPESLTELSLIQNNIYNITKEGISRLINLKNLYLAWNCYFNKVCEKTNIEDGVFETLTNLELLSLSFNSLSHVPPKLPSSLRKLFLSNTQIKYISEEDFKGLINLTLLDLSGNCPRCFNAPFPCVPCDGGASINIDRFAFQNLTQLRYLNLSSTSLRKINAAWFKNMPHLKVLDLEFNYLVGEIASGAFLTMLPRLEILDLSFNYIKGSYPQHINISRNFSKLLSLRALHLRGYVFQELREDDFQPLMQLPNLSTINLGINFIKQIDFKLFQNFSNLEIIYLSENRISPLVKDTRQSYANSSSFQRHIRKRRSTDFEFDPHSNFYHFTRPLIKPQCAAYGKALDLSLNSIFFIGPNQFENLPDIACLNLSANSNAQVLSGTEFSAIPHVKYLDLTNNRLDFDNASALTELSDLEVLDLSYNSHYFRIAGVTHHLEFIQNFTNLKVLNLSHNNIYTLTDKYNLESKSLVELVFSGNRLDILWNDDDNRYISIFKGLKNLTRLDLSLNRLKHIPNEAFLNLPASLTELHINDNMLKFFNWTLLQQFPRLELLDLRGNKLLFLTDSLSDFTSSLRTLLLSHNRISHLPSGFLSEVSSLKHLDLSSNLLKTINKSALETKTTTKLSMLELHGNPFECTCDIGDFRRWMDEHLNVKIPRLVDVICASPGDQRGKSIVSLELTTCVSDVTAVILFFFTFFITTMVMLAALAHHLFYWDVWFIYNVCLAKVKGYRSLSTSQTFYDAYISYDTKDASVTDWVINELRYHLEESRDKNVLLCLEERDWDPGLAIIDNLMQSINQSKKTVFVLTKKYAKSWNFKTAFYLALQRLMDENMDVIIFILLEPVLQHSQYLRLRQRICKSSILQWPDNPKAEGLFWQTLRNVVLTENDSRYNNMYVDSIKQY
The experiment is described as follows: In vitro human TLR8 binding reporter assay (HEK-Blue, NF-kB/AP1-inducible SEAP). The format is cell-based. The conditions noted are these: activity range, read-out: TLR8 Agonist EC50. Summed up:
as §1

In another experiment the test system is THP-1 cells. Put plainly: Measurement of IL-1β production, hTRF protocol (second alternative procedure), THP-1 cells. The format is cell-based, human. The conditions noted are these: Homo sapiens, THP-1, IL-1β production, human cells; read-out: NLRP3 hILIB EC50. The procedure, abridged: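 THP-1 cells differentiated overnight with 50 ng/ml PMA, then plated at 50,000 cells/well in RPMI with 2% FBS onto serial compound dilutions (top final concentration 10 μM) for 2 hours at 37° C. Supernatant IL-1β measured by hTRF (antibodies at 1:40, overnight at 4° C), read at 665/615 nm against a standard curve.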

In the case of `CC(Cn1cc2c(N)nc3cc(-c4cc[nH]n4)ccc3c2n1)C(=O)N1CC(O)C1` (stereo not drawn) [Example 613], the figures for the EC50 on TLR7, at TLR8 and in the experiment with THP-1 cells were over 100 µM, over 100 µM and 23.4 µM, respectively.
Consider `CC(C)NC(=O)C(C)Cn1cc2c(N)nc3cc(-c4cc[nH]n4)ccc3c2n1` (stereo not drawn) [Example 614], for which the EC50 (as a rule, the midpoint of the concentration-response curve) was over 100 µM on TLR7, over 100 µM on TLR8 and 11.6 µM in the experiment on THP-1 cells.
In the case of `CC(C)NC(=O)CC(C)n1cc2c(N)nc3cc(-c4cc[nH]n4)ccc3c2n1` (stereo not drawn) [Example 615], the figures for the EC50 on TLR7, at TLR8 and in the experiment with THP-1 cells were over 100 µM, over 100 µM and 10.4 µM, respectively.
Take `CC(CC(=O)N1CCOCC1)n1cc2c(N)nc3cc(-c4cc[nH]n4)ccc3c2n1` (stereo not drawn) [Example 616]: the EC50 is over 100 µM at TLR7, over 100 µM on TLR8 and 9.56 µM with THP-1 cells.
Turning to `CC(CC(=O)N(C)C)n1cc2c(N)nc3cc(-c4cc[nH]n4)ccc3c2n1` (stereo not drawn) [Example 617], the EC50 was over 100 µM at TLR7, over 100 µM at TLR8 and 3.88 µM with THP-1 cells.
With `CC(CC(=O)NCC(F)F)n1cc2c(N)nc3cc(-c4cc[nH]n4)ccc3c2n1` (stereo not drawn) [Example 618], the EC50 on TLR7 is over 100 µM; at TLR8 it was over 100 µM; in the experiment with THP-1 cells it was 14.5 µM.
On to `CC(CC(=O)NCCCO)n1cc2c(N)nc3cc(-c4cc[nH]n4)ccc3c2n1` (stereo not drawn) [Example 619], for which the EC50 at TLR7 is over 100 µM; on TLR8 it was over 100 µM; in the experiment on THP-1 cells, 19.7 µM.
Regarding `CC(CC(=O)NCCO)n1cc2c(N)nc3cc(-c4cc[nH]n4)ccc3c2n1` (stereo not drawn) [Example 620], the EC50 at TLR7 is over 100 µM; at TLR8 it was over 100 µM; with THP-1 cells it was 28.6 µM.
As for `CNC(=O)CC(C)n1cc2c(N)nc3cc(-c4cc[nH]n4)ccc3c2n1` (stereo not drawn) [Example 621], the EC50 was over 100 µM on TLR7, over 100 µM at TLR8 and 1.86 µM with THP-1 cells.
With `CC(CC(=O)NC1CCC1)n1cc2c(N)nc3cc(-c4cc[nH]n4)ccc3c2n1` (stereo not drawn) [Example 622], the EC50 is over 100 µM at TLR7, over 100 µM on TLR8 and 7.28 µM with THP-1 cells.
Regarding `COC1CCN(C(=O)CC(C)n2cc3c(N)nc4cc(-c5cc[nH]n5)ccc4c3n2)CC1` (stereo not drawn) [Example 623], the concentration giving a half-maximal response (EC50) was over 100 µM on TLR7, over 100 µM on TLR8 and 17.3 µM with THP-1 cells.
For the compound `CC(CC(=O)NCC1CCOCC1)n1cc2c(N)nc3cc(-c4cc[nH]n4)ccc3c2n1` (stereo not drawn) [Example 624], the results for the EC50 on TLR7, on TLR8 and in the experiment on THP-1 cells were over 100 µM, over 100 µM and 19.9 µM, respectively.

The record behind these values is patent US12037344B2, “NLRP3 modulators” (INNATE TUMOR IMMUNITY, INC., priority 2018, dated 2024).
